Assay results published in US11690854B2, “Methods of treating heavy menstrual bleeding” (priority 2018, dated 2023).
“Also recorded” adds a separate entry of the source. Marks after values point to notes of the source that are not given here.

Tests used:
QTc interval = assay: Thorough QT study; assay type: in vivo; conditions: up to 1200 mg; 17- to 23-fold of therapeutic concentrations; active control moxifloxacin 400 mg
Method: The effect of elagolix (up to 1200 mg) on QTc interval was evaluated in an active-controlled (moxifloxacin 400 mg) thorough QT study.

[1] = Pharmacokinetic properties of ELAGOLIX in healthy subjects; assay type: in vivo, human; conditions: for AUC: plasma; for AUC / Cmax: steady state, mean
[2] = Binding to human plasma proteins; assay type: in vitro ADME; conditions: read-out: % Bound to human plasma proteins (converted)
[3] = test system: cytochrome P450 (CYP) 3A enzyme; assay: Drug interaction potential: CYP3A
From the text: Co-administration with ELAGOLIX may decrease plasma concentration of drugs that are substrates of CYP3A.
(§1) Elagolix is a substrate of CYP3A, P-gp, and organic anion transporting polypeptide (OATP)1B1. Clinically meaningful interactions are not expected when ELAGOLIX is co-administered with drugs that inhibit CYP3A or P-gp.

[4] = molecular target: T1, organic anion transporting polypeptide (OATP)1B1 (Homo sapiens, UniProt Q9Y6L6); assay: Drug interaction potential: OATP1B1
T1 sequence (Q9Y6L6 1-691): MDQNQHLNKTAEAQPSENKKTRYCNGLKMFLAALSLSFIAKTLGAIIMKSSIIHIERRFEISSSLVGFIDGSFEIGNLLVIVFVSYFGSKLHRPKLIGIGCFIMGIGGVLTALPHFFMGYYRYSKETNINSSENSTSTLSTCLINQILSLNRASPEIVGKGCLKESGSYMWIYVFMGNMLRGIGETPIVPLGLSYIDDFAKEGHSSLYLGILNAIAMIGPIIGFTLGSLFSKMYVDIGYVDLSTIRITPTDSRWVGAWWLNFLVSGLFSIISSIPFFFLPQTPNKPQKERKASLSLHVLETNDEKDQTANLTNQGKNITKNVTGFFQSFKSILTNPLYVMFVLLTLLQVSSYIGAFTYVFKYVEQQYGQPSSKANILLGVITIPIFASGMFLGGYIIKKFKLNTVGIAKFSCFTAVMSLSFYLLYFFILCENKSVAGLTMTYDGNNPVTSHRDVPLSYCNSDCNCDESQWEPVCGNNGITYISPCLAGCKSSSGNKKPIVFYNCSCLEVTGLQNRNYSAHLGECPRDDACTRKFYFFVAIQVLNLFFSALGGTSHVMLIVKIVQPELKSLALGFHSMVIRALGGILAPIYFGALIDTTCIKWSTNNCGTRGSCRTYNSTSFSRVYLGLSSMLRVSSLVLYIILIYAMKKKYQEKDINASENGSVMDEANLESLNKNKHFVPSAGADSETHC
Method: as §1
Co-administration of ELAGOLIX with drugs that inhibit OATP1B1 may increase elagolix plasma concentrations. Use of potent OATP1B1 inhibitors are not recommended with ELAGOLIX 200 mg BID regimen.

rats = assay: Fertility study and repeat-dose study in rats; assay type: in vivo
From the text: Based on pharmacologic actions of elagolix in humans a reversible effect on fertility may be expected in women.

[5] = test system: premenopausal women with endometriosis with associated pain; assay: Phase 3 Study EM-II (and extension EM-IV); assay type: in vivo, human
From the text: Each placebo-controlled study assessed the reduction in endometriosis-associated pain over 6 months of treatment. More than 75 percent of women who completed Study EM-I and EM-II enrolled in the extension studies for an additional 6 month treatment period. Subjects were followed for up to 12 months post-treatment. The co-primary efficacy endpoints were the proportion of responders for dysmenorrhea and pelvic pain not related to menses (also known as non-menstrual pelvic pain [NMPP]) at Month 3 compared to placebo. The primary analysis independently evaluated these endpoints using a daily diary that asked patients to assess their pain and its impact on their daily activities, over the previous 24 hours. […] Women were defined as responders if they experienced clinically meaningful reduction in dysmenorrhea and/or NMPP with no increased analgesic use for endometriosis associated pain. Dyspareunia was evaluated as a secondary endpoint using the Daily Endometriosis Pain Impact Scale.

[6] = test system: women with moderate to severe endometriosis-related pain; assay: PROMIS Fatigue SF-6a in Phase III study of endometriosis pain; assay type: in vivo, human
Method: A Phase III study was conducted to assess the effects of elagolix for clinically meaningful reductions in pain and other symptoms. Data provided examined the impact of elagolix on fatigue in women with moderate to severe endometriosis-related pain. […] Fatigue was assessed using the Patient Reported Outcome Measurement Information System (PROMIS®), Fatigue Short Form (SF) 6a. Six items assessed a range of self-reported symptoms from mild, subjective feelings of tiredness to overwhelming, sustained sense of exhaustion that likely decreases one's ability to execute daily activities and function normally. The domain was divided into the experience of fatigue (frequency, duration and intensity) and impact of fatigue on physical, mental and social activities. All items assessed fatigue over the previous seven days. […] Lower scores indicated less fatigue. Post-hoc, Fatigue SF-6a raw scores were converted to T-scores. The T-score rescales […] the raw score into a standardized score such that the general population has a mean of 50 and a standard deviation (SD) of 10. Analysis: […] ANCOVA controlled for treatment as main effect. Baseline Fatigue SF-6a T-score included as a covariate.

Q: For `COc1cccc(-c2c(C)n(Cc3c(F)cccc3C(F)(F)F)c(=O)n(C[C@H](NCCCC(=O)O)c3ccccc3)c2=O)c1F` [Elagolix, 4-((R)-2-[5-(2-fluoro-3-methoxy-phenyl)-3-(2-fluoro-6-trifluoromethyl-benzyl)-4-methyl-2,6-dioxo-3,6-dihydro-2H-pyrimidin-1-yl]-1-phenyl-ethylamino)-butyric acid], which “Effect on QTc interval” value (QTc interval) is on record?
A: does not prolong the QTc interval

Q: And the Tmax ([1]; healthy subjects)?
A: 1.0 h

Q: What about the blood plasma ratio ([1]; human, blood and plasma) of the same compound?
A: 0.6

Q: What about the “Major route of elimination” value ([1]; human, in vivo) of the same compound?
A: Hepatic metabolism

Q: And the “Metabolism, minor pathways” value ([1]; human, in vivo)?
A: glucuronosyltransferases (UGTs)

Q: What about the half-life ([1]; human, in vivo, oral, healthy subjects, read-out: Terminal phase elimination half-life (t½)) of the same compound?
A: 4 to 6 h

Q: What about the “Metabolism, minor pathways” value ([1]; human, in vivo, listed as ELAGOLIX) of the same compound?
A: Minor pathways include: CYP2D6,; also recorded: CYP2C8, and uridine

Q: What about the AUC ([1]; human, oral, 150 mg QD, τ 24 hours, % CV 31) of the same compound?
A: 1290 ng·h/mL

Q: And the AUC ([1]; human, oral, 200 mg BID, τ 12 hours, % CV 57)?
A: 1720 ng·h/mL

Q: And the Metabolism ([1]; major pathway)?
A: CYP3A (major)

Q: And the Cmax ([1]; 150 mg QD, % CV 29)?
A: 574 ng/mL

Q: And the Cmax ([1]; 200 mg BID, % CV 68)?
A: 774 ng/mL

Q: What about the fraction unbound [2] of the same compound?
A: 0.2

Q: And the “Induction of CYP3A” value [3]?
A: weak to moderate inducer

Q: And the “Substrate of CYP3A” value [3]?
A: substrate

Q: What about the “Substrate of OATP1B1” value [4] of the same compound?
A: substrate

Q: What about the “Effect in fertility study” value (rats; doses 50, 150, 300 mg/kg/day) of the same compound?
A: no effect

Q: What about the “Ovarian findings in repeat-dose study” value (rats; doses 600, 800 mg/kg/day) of the same compound?
A: involution and a decrease in corpora lutea in ovaries

Q: What about the “Proportion of responders for Dyspareunia (Daily Endometriosis Pain Impact Scale)” value (shortened to “Proportion of responders for Dyspareunia”) ([5]; 150 mg QD, Month 3, n/N 70/159, placebo 39.5) of the same compound?
A: 44.0%

Q: And the “Proportion of responders for dysmenorrhea (Daily Endometriosis Pain Impact Scale)” value ([5]; 150 mg QD, Month 3, n/N 96/221, placebo 22.7)?
A: 43.4%***

Q: And the “Proportion of responders for Non-Menstrual Pelvic Pain (Daily Endometriosis Pain Impact Scale)” value ([5]; 150 mg QD, Month 3, n/N 110/221, placebo 36.5)?
A: 49.8** %

Q: And the “Proportion of responders for Dyspareunia” value ([5]; 150 mg QD, Month 6, n/N 65/163, placebo 39.4)?
A: 39.9%

Q: And the “Proportion of responders for dysmenorrhea (Daily Endometriosis Pain Impact Scale)” value ([5]; 150 mg QD, Month 6, n/N 102/221, placebo 25.4)?
A: 46.2%***

Q: What about the “Proportion of responders for Non-Menstrual Pelvic Pain (Daily Endometriosis Pain Impact Scale)” value ([5]; 150 mg QD, Month 6, n/N 114/221, placebo 40.6) of the same compound?
A: 51.6%**

Q: What about the “Proportion of responders for Dyspareunia” value ([5]; 200 mg BID, Month 3, n/N 87/162, placebo 39.5) of the same compound?
A: 53.7** %

Q: And the “Proportion of responders for Non-Menstrual Pelvic Pain (Daily Endometriosis Pain Impact Scale)” value ([5]; 200 mg BID, Month 3, n/N 130/225, placebo 36.5)?
A: 57.8*** %

Q: And the “Proportion of responders for dysmenorrhea (Daily Endometriosis Pain Impact Scale)” value ([5]; 200 mg BID, Month 3, n/N 163/225, placebo 22.7)?
A: 72.4*** %

Q: And the “Proportion of responders for Dyspareunia” value ([5]; 200 mg BID, Month 6, n/N 92/165, placebo 39.4)?
A: 55.8*** %

Q: And the “Proportion of responders for Non-Menstrual Pelvic Pain (Daily Endometriosis Pain Impact Scale)” value ([5]; 200 mg BID, Month 6, n/N 140/225, placebo 40.6)?
A: 62.2*** %

Q: And the “Proportion of responders for dysmenorrhea (Daily Endometriosis Pain Impact Scale)” value ([5]; 200 mg BID, Month 6, n/N 173/225, placebo 25.4)?
A: 76.9*** %

Q: And the “PROMIS Fatigue SF-6a T-Score” value ([6]; 200 mg, Month 1)?
A: statistically significant reduction in fatigue

Q: What about the “PROMIS Fatigue SF-6a T-Score” value ([6]; both doses (150 mg QD, 200 mg BID), Months 3 and 6) of the same compound?
A: Statistically significant reductions relative to placebo
